US8153160B2 (Bayer Pharma Aktiengesellschaft, priority 2005, dated 2012)

Tests used:
[1] = cited from earlier work
[2] = In vitro release, USP release method with apparatus 2 (paddle); type: physicochemical; conditions: 100 rpm, 900 ml phosphate buffer pH 6.8 + 1.0% sodium lauryl sulfate, JP sinker
Experimental: The in vitro release investigations described below were carried out by the USP release method with apparatus 2 (paddle). […] Also added to the buffer solution to set up sink conditions is 1% sodium lauryl sulfate. The tablet formulations are preferably released from a sinker as specified in the Japanese Pharmacopoeia.

CCCCc1nc(Cl)c(CO)n1Cc1ccc(-c2ccccc2-c2nn[nH]n2)cc1 [Losartan-K, losartan potassium]
water solubility, classified in words [1]: freely soluble | Release [%] at 2 h ([2]; from tablet Exemplary formulation 2.1 (30 mg nifedipine, osmotic two-chamber system), time 2 h): 2% | Release [%] at 4 h ([2]; from tablet Exemplary formulation 2.1 (30 mg nifedipine, osmotic two-chamber system), time 4 h): 19% | Release [%] at 8 h ([2]; from tablet Exemplary formulation 2.1 (30 mg nifedipine, osmotic two-chamber system), time 8 h): 48% | Release [%] at 12 h ([2]; from tablet Exemplary formulation 2.1 (30 mg nifedipine, osmotic two-chamber system), time 12 h): 77% | Release [%] at 24 h ([2]; from tablet Exemplary formulation 2.1 (30 mg nifedipine, osmotic two-chamber system), time 24 h): 96%

CCOc1nc2cccc(C(=O)OC(C)OC(=O)OC3CCCCC3)c2n1Cc1ccc(-c2ccccc2-c2nnn[nH]2)cc1 (stereo not shown) [candesartan cilexetil]
water solubility, classified in words [1]: virtually insoluble in water

CCCc1nc2c(C)cc(-c3nc4ccccc4n3C)cc2n1Cc1ccc(-c2ccccc2C(=O)O)cc1 [Telmisartan]
Release [%] at 2 h ([2]; from nifedipine/telmisartan osmotic two-chamber tablet, heading prints Exemplary Formulation 2.1, time 2 h): 5% | Release [%] at 5 h ([2]; from nifedipine/telmisartan osmotic two-chamber tablet, heading prints Exemplary Formulation 2.1, time 5 h): 22% | Release [%] at 10 h ([2]; from nifedipine/telmisartan osmotic two-chamber tablet, heading prints Exemplary Formulation 2.1, time 10 h): 51% | Release [%] at 15 h ([2]; from nifedipine/telmisartan osmotic two-chamber tablet, heading prints Exemplary Formulation 2.1, time 15 h): 80% | Release [%] at 24 h ([2]; from nifedipine/telmisartan osmotic two-chamber tablet, heading prints Exemplary Formulation 2.1, time 24 h): 90%

COC(=O)C1=C(C)NC(C)=C(C(=O)OCC(C)C)C1c1ccccc1[N+](=O)[O-] (stereo not shown) [nisoldipine]
water solubility [1]: about 2 mg/l
